The values below come from patent publication US20230167073A1 (Teijin Pharma Limited, priority 2020, published 2023).

SMILES strings stand for the structures.

One test addresses T1, Human TRPC6 (Homo sapiens, UniProt Q9Y210).
T1 construct: expressed in transfected cells
T1 sequence (Q9Y210 1-931): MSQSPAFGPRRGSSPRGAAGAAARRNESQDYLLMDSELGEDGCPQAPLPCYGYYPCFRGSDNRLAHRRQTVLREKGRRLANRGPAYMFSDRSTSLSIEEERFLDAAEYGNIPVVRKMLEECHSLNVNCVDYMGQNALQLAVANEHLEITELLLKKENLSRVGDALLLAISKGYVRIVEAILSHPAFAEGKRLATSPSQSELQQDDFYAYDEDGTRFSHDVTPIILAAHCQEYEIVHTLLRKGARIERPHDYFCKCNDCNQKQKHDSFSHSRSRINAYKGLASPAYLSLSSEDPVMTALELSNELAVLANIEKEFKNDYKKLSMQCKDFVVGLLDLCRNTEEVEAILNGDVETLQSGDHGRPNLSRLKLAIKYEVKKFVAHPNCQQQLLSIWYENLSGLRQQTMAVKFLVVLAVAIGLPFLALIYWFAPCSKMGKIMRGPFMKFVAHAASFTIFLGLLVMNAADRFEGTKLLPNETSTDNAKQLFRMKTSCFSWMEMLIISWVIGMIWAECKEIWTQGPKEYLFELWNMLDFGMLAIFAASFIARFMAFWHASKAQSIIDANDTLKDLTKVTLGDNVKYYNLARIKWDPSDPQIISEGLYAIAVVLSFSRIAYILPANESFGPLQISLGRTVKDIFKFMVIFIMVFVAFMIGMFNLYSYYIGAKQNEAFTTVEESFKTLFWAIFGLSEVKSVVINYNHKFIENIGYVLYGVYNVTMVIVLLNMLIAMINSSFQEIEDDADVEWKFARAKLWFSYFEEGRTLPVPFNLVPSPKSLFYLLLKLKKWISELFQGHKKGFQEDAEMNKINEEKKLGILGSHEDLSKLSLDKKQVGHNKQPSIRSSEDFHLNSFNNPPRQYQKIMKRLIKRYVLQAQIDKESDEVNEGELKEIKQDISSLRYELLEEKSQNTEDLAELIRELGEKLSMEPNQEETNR
Nature of the test: Evaluation of TRPC6 channel inhibitory activity (1), FLIPR Calcium 5 Assay Kit, OAG stimulation (Compound Nos. 1-1293). It counts as cell-based.
Details: not given
The method in brief: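 Stable human TRPC6 line; fluorescent Ca2+ dye loading, then 20 min compound exposure before 30 μM OAG trigger. Peak-minus-baseline signal converted to % inhibition against untreated and unstimulated wells; potency given as pIC50 band.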
As to `Cc1cc(Oc2cc(C#N)ccc2-c2ncc(CN)cn2)cc(N2C3CCC2CC3)n1` [compound 826, 4-[5-(aminomethyl)pyrimidin-2-yl]-3-[2-(7-azabicyclo[2.2.1]heptan-7-yl)-6-methylpyridin-4-yl]oxybenzonitrile], the IC50 was below 10 nM.

Still in this test, the particulars now being: Human TRPC6 stably-expressing cells, OAG 30 μM, FLIPR Calcium 5 Assay Kit; read-out: Inhibitory activity (pIC50 class) (converted).
Consider `N#Cc1ccc(-c2ccc(CCN)cn2)c(Cn2cnc(-c3cccc(F)c3)c2)c1` [compound 1149, 4-[5-(2-aminoethyl)pyridin-2-yl]-3-[[4-(3-fluorophenyl)imidazol-1-yl]methyl]benzonitrile], for which the IC50 was below 10 nM.

`N#Cc1ccc(-c2ccc(CCN)nc2)c(Cn2cnc(-c3ccccc3)c2)c1` [compound 1132, 4-[6-(2-aminoethyl)pyridin-3-yl]-3-[(4-phenylimidazol-1-yl)methyl]benzonitrile]: the IC50 is 10 to 1000 nM. For the molecule `Cn1nc(N2CCCC2)cc1Oc1cc(C#N)ccc1-c1ncc(CN)cn1` [compound 625, 4-[5-(aminomethyl)pyrimidin-2-yl]-3-(2-methyl-5-pyrrolidin-1-ylpyrazol-3-yl)oxybenzonitrile], the IC50 was below 10 nM. On the same count and under the same terms, under `COCCN(C)c1cc(Oc2cc(C#N)ccc2-c2ncc(CCN)cn2)cc(C)n1` [compound 458, 4-[5-(2-aminoethyl)pyrimidin-2-yl]-3-[2-[2-methoxyethyl(methyl)amino]-6-methylpyridin-4-yl]oxybenzonitrile] stands below 10 nM; under `Cc1ccc(-c2cc(Oc3cc(C#N)ccc3-c3ccc(CCN)nc3)n(C)n2)nc1` [Compound 181, 4-[6-(2-aminoethyl)pyridin-3-yl]-3-[2-methyl-5-(5-methylpyridin-2-yl)pyrazol-3-yl]oxybenzonitrile], 10 to 1000 nM; under `Cn1nc(C2CC2)cc1Oc1cc(C#N)ccc1-c1nnc2n1CCNC2` [compound 763, 3-(5-cyclopropyl-2-methylpyrazol-3-yl)oxy-4(5,6,7,8-tetrahydro-[1,2,4]triazolo[4,3-a]pyrazin-3-yl)benzonitrile], above 1000 nM. For `Cn1nc(C2CC2)cc1Oc1cc(C#N)ccc1-c1cc(CN)cn2ccnc12` [compound 736, 4-[6-(aminomethyl)imidazo[1,2-a]pyridin-8-yl]-3-(5-cyclopropyl-2-methylpyrazol-3-yl)oxybenzonitrile], the IC50 was 10 to 1000 nM. Same read-out and setting: the same measure for `Cn1nc(-c2ccccc2)cc1Oc1cc(C#N)ccc1-c1ccc2c(N)noc2c1` [compound 415, 4-(3-amino-1,2-benzoxazol-6-yl)-3-(2-methyl-5-phenylpyrazol-3-yl)oxybenzonitrile]: above 1000 nM; for `Cc1nc(Oc2cc(C#N)ccc2-c2ccc3c(c2)CC(N)C3=O)cc(N2CCOCC2)n1` (stereo not drawn) [Compound 131, 4-(2-Amino-1-oxo-2,3-dihydroinden-5-yl)-3-(2-methyl-6-morpholin-4-ylpyrimidin-4-yl)oxybenzonitrile]: above 1000 nM. Still for that read-out and setting: the same measure for `Cc1nc(Oc2cc(C#N)ccc2-c2ccc(C(CN)c3ccccc3)cc2)cc(N2CCOCC2)n1` (stereo not drawn) [Compound 59, 4-[4-(2-Amino-1-phenylethyl)phenyl]-3-(2-methyl-6-morpholin-4-ylpyrimidin-4-yl)oxybenzonitrile]: 10 to 1000 nM. Still for that read-out and setting: under `CCCN(CCC)c1cc(Oc2cc(C#N)ccc2-c2ncc(CCN)cn2)n(C)n1` [compound 759, 4-[5-(2-aminoethyl)pyrimidin-2-yl]-3-[5-(dipropylamino)-2-methylpyrazol-3-yl]oxybenzonitrile] stands below 10 nM; under `CCN(CC(F)F)c1cc(Oc2cc(C#N)ccc2-c2ncc(CN)cn2)n(C)n1` [compound 874, 4-[5-(aminomethyl)pyrimidin-2-yl]-3-[5-[2,2-difluoroethyl(ethyl)amino]-2-methylpyrazol-3-yl]oxybenzonitrile], below 10 nM.

For the molecule `Cc1cc(Oc2cc(C#N)ccc2-c2ncc([C@H](O)CN)cn2)cc(N2CCOCC2)n1` [compound 430, 4-[5-[(1S)-2-amino-1-hydroxyethyl]pyrimidin-2-yl]-3-(2-methyl-6-morpholin-4-ylpyridin-4-yl)oxybenzonitrile], the IC50 was below 10 nM. The same measure, in the same setting: under `Cn1nc(C(F)(F)F)cc1Oc1cc(C#N)ccc1-c1ccc(CN)cn1` [compound 810, 4-[5-(aminomethyl)pyridin-2-yl]-3-[2-methyl-5-(trifluoromethyl)pyrazol-3-yl]oxybenzonitrile] stands below 10 nM; under `N#Cc1ccc(-c2ncc(CCN)cn2)c([S+]([O-])c2cnnc(N3CCCCC3)c2)c1` (stereo not drawn) [Compound No. 1276, 4-[5-(2-Aminoethyl)pyrimidin-2-yl]-3-(6-piperidin-1-ylpyridazin-4-yl)sulfinylbenzonitrile], above 1000 nM; under `Cn1nc(C2CC2)cc1Oc1cc(C#N)ccc1-c1ccc(CN)n2ccnc12` [compound 493, 4-[5-(aminomethyl)imidazo[1,2-a]pyridin-8-yl]-3-(5-cyclopropyl-2-methylpyrazol-3-yl)oxybenzonitrile], below 10 nM. Consider `Cc1cc(Oc2cc(C#N)ccc2-c2ccc(C(N)CO)cn2)cc(N2CCOCC2)n1` (stereo not drawn) [compound 412, 4-[5-(1-amino-2-hydroxyethyl)pyridin-2-yl]-3-(2-methyl-6-morpholin-4-ylpyridin-4-yl)oxybenzonitrile], for which the IC50 is 10 to 1000 nM. On the same count and under the same terms, under `Cc1cc(Oc2cc(C#N)ccc2-c2ncc(CNC(C)(C)C)cn2)cc(N2CCOCC2)n1` [compound 661, 4-[5-[(tert-butylamino)methyl]pyrimidin-2-yl]-3-(2-methyl-6-morpholin-4-ylpyridin-4-yl)oxybenzonitrile] stands above 1000 nM; under `N#Cc1ccc(-c2ncc(CN)cn2)c(Oc2cnnc(N3CCOCC3)c2)c1` [compound 534, 4-[5-(aminomethyl)pyrimidin-2-yl]-3-(6-morpholin-4-ylpyridazin-4-yl)oxybenzonitrile], 10 to 1000 nM. Same read-out and setting: the same measure for `Cc1nc(-c2cc(Oc3cc(C#N)ccc3-c3ncc(CN)cn3)n(C)n2)cs1` [compound 957, 4-[5-(aminomethyl)pyrimidin-2-yl]-3-[2-methyl-5-(2-methyl-1,3-thiazol-4-yl)pyrazol-3-yl]oxybenzonitrile]: below 10 nM. The same measure, in the same setting: the same measure for `CC(C)n1nc(-c2ccccc2)cc1Oc1cc(C#N)ccc1-c1ncc(CCN)cn1` [compound 381, 4-[5-(2-aminoethyl)pyrimidin-2-yl]-3-(5-phenyl-2-propan-2-ylpyrazol-3-yl)oxybenzonitrile]: below 10 nM; for `Cn1nc(C(C)(C)C)cc1C(O)c1cc(C#N)ccc1-c1ncc(CCN)cn1` (stereo not drawn) [compound 1235, 4-[5-(2-aminoethyl)pyrimidin-2-yl]-3-[(5-tert-butyl-2-methylpyrazol-3-yl)-hydroxymethyl]benzonitrile]: 10 to 1000 nM; for `Cn1nc(C2CC2)cc1Oc1cc(C#N)ccc1-c1cccc2nc(N)nn12` [compound 475, 4-(2-amino-[1,2,4]triazolo[1,5-a]pyridin-5-yl)-3-(5-cyclopropyl-2-methylpyrazol-3-yl)oxybenzonitrile]: above 1000 nM. For the molecule `CN(C)c1cc(Oc2cc(C#N)ccc2-c2ncc(CN)cn2)cnn1` [compound 716, 4-[5-(aminomethyl)pyrimidin-2-yl]-3-[6-(dimethylamino)pyridazin-4-yl]oxybenzonitrile], the IC50 is 10 to 1000 nM. Turning to `COC(c1cc(-c2nccs2)no1)c1cc(C#N)ccc1-c1ccc(CCN)cc1` (stereo not drawn) [Compound No. 1232, 4-[4-(2-Aminoethyl)phenyl]-3-[methoxy-[3-(1,3-thiazol-2-yl)-1,2-oxazol-5-yl]methyl]benzonitrile], the IC50 is above 1000 nM. Same read-out and setting: the same measure for `N#Cc1ccc(-c2ncc(CCN)cn2)c(Oc2nnc(N3CC(F)C3)s2)c1` [compound 722, 4-[5-(2-aminoethyl)pyrimidin-2-yl]-3-[[5-(3-fluoroazetidin-1-yl)-1,3,4-thiadiazol-2-yl]oxy]benzonitrile]: 10 to 1000 nM.

Take `Cc1nc(Oc2cc(C#N)ccc2-c2ccc(CC3(N)COC3)cn2)cc(N2CCCC2)n1` [compound 616, 4-[5-[(3-aminooxetan-3-yl)methyl]pyridin-2-yl]-3-(2-methyl-6-pyrrolidin-1-ylpyrimidin-4-yl)oxybenzonitrile]: the IC50 was 10 to 1000 nM.

Take `CC(C)Cc1cc(Oc2cc(C#N)ccc2-c2ccc(CCN)cc2)n(C)n1` [Compound 211, 4-[4-(2-aminoethyl)phenyl]-3-[2-methyl-5-(2-methylpropyl)pyrazol-3-yl]oxybenzonitrile]: the IC50 was below 10 nM.

As to `N#Cc1ccc(-c2ccc(CCN)cn2)c(C(=O)c2nnc(N3CCOCC3)o2)c1` [compound 1091, 4-[5-(2-aminoethyl)pyridin-2-yl]-3-(5-morpholin-4-yl-1,3,4-oxadiazole-2-carbonyl)benzonitrile], the IC50 was 10 to 1000 nM.
